Laboratory results published in patent publication US20250326715A1, “NOVEL MAIN PROTEASE INHIBITORS, AND COMPOSITIONS AND METHODS THEREOF” (University of Massachusetts, priority 2023, published 2025).
Read-outs that look alike come from different tables or passages of the source.

Assays:
[1] = Pharmacokinetic parameters in mice (plasma, LC-MS/MS); conditions: for CI_Obs: IV
Experimental: (§1) Pharmacokinetics were evaluated in male C57Bl/6 mice, approximately 25 g. Test compounds were formulated at 0.3 mg/mL for intravenous dosing and 1 mg/mL for oral gavage. Formulation concentrations reflect free-base concentrations. Formulations were prepared by dissolving in DMSO (20× stock) and mixing 1:1 with tween-80. Prior to dosing, the formulation was diluted with sterile saline. The final formulation was 5% DMSO, 5% tween-80, 90% saline (v:v:v). Mice (n=3) were dosed at 10 μL per gram body weight. […] A total of 25 μL blood was collected at each time point. The hematocrit tubes were sealed with a wax plug and held on ice until plasma could be isolated via centrifugation in a microcentrifuge fit with a hematocrit rotor.
(§2) Drug levels were determined from 5 μL plasma. Plasma was treated with 75 μL 90/10 acetonitrile/water containing Carbamazepine as an internal standard (IS). Samples were loaded to a 96-well Millipore Multiscreen Solvinter 0.45 micron low binding PTFE hydrophilic filter plate and the filtrate was directly analyzed. All plasma samples were treated with 75 μL 90/10 acetonitrile/water with Carbamazepine as internal standard (IS) to extract the analyte and precipitate protein. The plates were agitated on ice for approximately five minutes prior to centrifugation into a collection plate. Separate standard curves were prepared in blank mouse plasma and brain homogenate and processed in parallel with the samples. The filtrate was directly analyzed by LC-MS/MS.

[2] = mock-infected mice
SARS-CoV-2 M^Pro = SARS-CoV-2 M^Pro (Severe acute respiratory syndrome coronavirus 2, UniProt P0DTD1); test: Determination of kinact/KI values for SARS-CoV-2 M^Pro (time- and concentration-dependent inactivation); type: biochemical
Experimental: where νo is the initial velocity of uninhibited reaction and νi is the initial velocity in the presence of inhibitor. All measurements were done in triplicate. Determination of kinact/KI values for SARS-CoV-2 M^Pro
Time- and concentration-dependent inactivation assays were done by following a similar protocol as described for Ki determination. M^Pro (12.5 nM final) was treated with the peptide-substrate (30 μM final) and test inhibitor (0-80 μM for D-FF(R/Cit)-(CMK/CMKyne); 0-1.25 mM for SM136-145) at time=0 to initiate inactivation process. The total volume of the assay mixture was 50 μL. Time-dependent increase in fluorescence was monitored at 485 nm with excitation at 340 nm for a period of 20-25 min. The observed rates (kobs) for the peptide cleavage in both the presence and absence of inhibitor were determined by fitting to a single-phase association equation. The resulting kobs values were plotted against the concentrations of inhibitor and linear fits were used to derive the slope that afforded the kinact/KI values. All measurements were done in triplicate.

M^Pro = M^Pro (Severe acute respiratory syndrome coronavirus 2, UniProt P0DTD1); test: Chemoproteomic enrichment of proteins labelled by SM144 in A549-hACE2 lysate spiked with M^Pro; type: binding, SARS-CoV-2; conditions: 1 μM SM144, lysate spiked with 250 nM M^Pro
Experimental: The proteome-wide selectivity was evaluated via an orthogonal chemoproteomic assay. […] Subsequently, the labeled proteins were biotinylated with copper-catalyzed click chemistry in the presence of Biotin-azide, and the biotinylated proteins were selectively enriched on Streptavidin-agarose beads, proteolyzed with trypsin and analyzed by chemoproteomic analysis. […] There were, however, a few cellular off-targets, including glutathione reductase (GSHR), adenosylhomocysteinase (SAHH), aldose reductase (ALDR), S-adenosylmethionine synthase isoform type-2 (METK2), gamma-actin (ACTG), tubulin alpha-4A chain (TBA4A), ubiquitin-like modifier-activating enzyme 1 (UBA1) and junction plakoglobin (PLAK).
A549-hACE2 cell lysate was prepared as described earlier. Endogenous biotinylated proteins were precleared by incubating the lysates with streptavidin-agarose beads (25 μL for 1 mg of total protein in the lysate) at room temperature for 1 h with constant mixing on an end-over-end shaker. The mixture was centrifuged (1200 g, 3 minute) to separate the beads and the supernatant (pre-cleared lysate). […] The assay mixture was incubated at 25° C. for 30 min. Then Biotin-N3 (200 μM), TCEP (1 mM), TBTA (0.3 mM) and freshly prepared CuSO4 (4 mM) were added sequentially, and the tubes were gently tumbled at room temperature for 2 h. […]

SARS-CoV-2 = type: cell-based; conditions: Huh7.5 cells, 2 μM, 24 h
in vivo = conditions: male, C57Bl/6, mouse
Experimental: as §1, §2

A549-hACE2 cells = test: Cytotoxicity assay (LDH release); type: cell-based, human
Experimental: A549-hACE2 cells were treated with indicated doses of inhibitors for 24 hours. Then the media were collected for lactate dehydrogenase (LDH) assay.
Supernatant samples are transferred to a 96-well plate and an equal volume of CytoTox 96® Reagent is added to each well and incubated for 30 min.

[3] = Aqueous solubility (comparison in words)
[4] = male, C57Bl/6, mouse, plasma, iv, 3 mg/kg
[5] = male, C57Bl/6, mouse, plasma, po, 10 mg/kg

CCOC(=O)C=CC(CC1CCNC1=O)NC(=O)C(Cc1ccccc1)NC(=O)C(Cc1ccc(F)cc1)NC(=O)OC(C)(C)C (stereo not drawn) [SM142]
half-life ([1]; male, C57Bl/6, mouse, in vivo, po, 10 mg/kg): 126 min
AUC(0-inf) [1, 4]: 308 ng·h/mL
AUC(0-t) [1, 4]: 0.4 µM·h
Cmax [1, 4]: 400 nM
MRT inf [1, 4]: 114 min
Tmax [1, 4]: 4.8 min
Vd [1, 4]: 13.2 L/kg
half-life [1, 4]: 126 min
AUC(0-inf) [1, 5]: 347 ng·h/mL
AUC(0-t) [1, 5]: 0.5 µM·h
Cmax [1, 5]: 600 nM
Tmax [1, 5]: 4.8 min
bioavailability [1, 5]: 37.5%
oral bioavailability / oral absorption, in words ([1]; mice): significant oral absorption
tissue distribution, in words ([1]; mice): much higher tissue distribution than SM141
CI_Obs ([1]; mice): 169 mL/min/kg
weight loss in uninfected mice [2]: no significant weight loss in the uninfected mice
kinact/KI (SARS-CoV-2 M^Pro; read-out: M^Pro kinact/KI): 183 M⁻¹ s⁻¹

C#CCOCCC(=O)NC(Cc1ccc(F)cc1)C(=O)NC(Cc1ccccc1)C(=O)NC(C=CC(=O)OCC)CC1CCNC1=O (stereo not drawn) [SM144]
proteome-wide selectivity (enriched proteins) (M^Pro): M^Pro is the most statistically significantly enriched protein
kinact/KI (SARS-CoV-2 M^Pro; read-out: second-order rate constant for enzyme inactivation (kinact/KI), M^Pro): 567 M⁻¹ s⁻¹

CCOC(=O)C=CC(CC1CCNC1=O)NC(=O)C(Cc1ccccc1)NC(=O)C(N)Cc1ccccc1 (stereo not drawn) [SM141]
oral bioavailability / oral absorption, in words ([1]; mice): minimal oral bioavailability
plasma half-life (T1/2), in words ([1]; mice): about an hour
tissue distribution, in words ([1]; mice): lower tissue distribution
CI_Obs ([1]; mice): 71.5 mL/min/kg
antiviral activity, in words (SARS-CoV-2): almost completely blocks viral infection
AUC(0-inf) (in vivo; ip): 827 ng·h/mL
AUC(0-t) (in vivo; ip): 1.6 µM·h
Cmax (in vivo; ip): 2700 nM
Tmax (in vivo; ip): 8.4 min
bioavailability (in vivo; ip): 35.2%
half-life (in vivo; ip): 48 min
AUC(0-inf) (in vivo; iv): 706 ng·h/mL
AUC(0-t) (in vivo; iv): 1.3 µM·h
Cmax (in vivo; iv): 3900 nM
MRT inf (in vivo; iv): 24 min
Tmax (in vivo; iv): 4.8 min
Vd (in vivo; iv): 1.6 L/kg
half-life (in vivo; iv): 48 min
weight loss in uninfected mice [2]: no significant weight loss in the uninfected mice
concentration up to which no notable cytotoxicity is caused (A549-hACE2 cells; A549-hACE2 cells, 24 h, LDH): > 50000 nM
cytoxcity (A549-hACE2 cells; Table 2): >100 µM
aqueous solubility, in words [3]: more aqueous solubility than SM142
